According to US10670605B2, “Cysteine reactive probes and uses thereof” (The Scripps Research Institute, priority 2015, dated 2020):

Assays:
Assay in all cases: Competitive isoTOP-ABPP in situ (fragment-treated cells)
Format in all cases: cell-based
[1] = target: T1, cysteines in MDA-MB-231 and Ramos cells (Homo sapiens, UniProt Q15398)
T1 sequence (Q15398 1-846): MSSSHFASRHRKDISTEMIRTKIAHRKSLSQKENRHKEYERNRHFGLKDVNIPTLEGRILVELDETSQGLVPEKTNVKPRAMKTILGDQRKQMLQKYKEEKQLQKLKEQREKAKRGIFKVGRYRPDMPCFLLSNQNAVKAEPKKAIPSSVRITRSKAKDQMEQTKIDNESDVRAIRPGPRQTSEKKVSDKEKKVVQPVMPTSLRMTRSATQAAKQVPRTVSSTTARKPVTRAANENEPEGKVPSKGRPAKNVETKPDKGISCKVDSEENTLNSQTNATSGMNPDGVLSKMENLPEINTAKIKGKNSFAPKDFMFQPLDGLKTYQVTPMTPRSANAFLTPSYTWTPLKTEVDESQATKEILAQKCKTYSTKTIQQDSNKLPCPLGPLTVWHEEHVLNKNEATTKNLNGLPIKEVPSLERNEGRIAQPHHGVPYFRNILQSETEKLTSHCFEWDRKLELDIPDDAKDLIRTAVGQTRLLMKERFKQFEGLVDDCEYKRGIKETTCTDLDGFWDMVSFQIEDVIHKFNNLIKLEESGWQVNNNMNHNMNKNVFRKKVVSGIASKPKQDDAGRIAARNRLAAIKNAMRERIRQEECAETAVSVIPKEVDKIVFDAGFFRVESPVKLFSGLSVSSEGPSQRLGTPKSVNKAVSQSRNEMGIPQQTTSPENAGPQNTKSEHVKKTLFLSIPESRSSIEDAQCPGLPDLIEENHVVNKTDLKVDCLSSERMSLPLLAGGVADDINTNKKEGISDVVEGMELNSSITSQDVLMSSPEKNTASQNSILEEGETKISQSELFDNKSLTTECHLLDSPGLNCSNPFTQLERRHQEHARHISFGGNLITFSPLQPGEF

[2] = target: T2, cysteines in MDA-MB-231 and Ramos cells (Homo sapiens, UniProt Q9NX18)
T2 sequence (Q9NX18 30-166): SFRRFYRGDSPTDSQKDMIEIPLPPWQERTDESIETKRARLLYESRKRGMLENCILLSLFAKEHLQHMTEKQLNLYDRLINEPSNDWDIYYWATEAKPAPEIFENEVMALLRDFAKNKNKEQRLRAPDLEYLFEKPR

[3] = target: cysteines in MDA-MB-231 and Ramos cells (Homo sapiens, UniProt P53634)
Sequence of cysteines in MDA-MB-231 and Ramos cells (Homo sapiens, UniProt P53634) (P53634 25-463): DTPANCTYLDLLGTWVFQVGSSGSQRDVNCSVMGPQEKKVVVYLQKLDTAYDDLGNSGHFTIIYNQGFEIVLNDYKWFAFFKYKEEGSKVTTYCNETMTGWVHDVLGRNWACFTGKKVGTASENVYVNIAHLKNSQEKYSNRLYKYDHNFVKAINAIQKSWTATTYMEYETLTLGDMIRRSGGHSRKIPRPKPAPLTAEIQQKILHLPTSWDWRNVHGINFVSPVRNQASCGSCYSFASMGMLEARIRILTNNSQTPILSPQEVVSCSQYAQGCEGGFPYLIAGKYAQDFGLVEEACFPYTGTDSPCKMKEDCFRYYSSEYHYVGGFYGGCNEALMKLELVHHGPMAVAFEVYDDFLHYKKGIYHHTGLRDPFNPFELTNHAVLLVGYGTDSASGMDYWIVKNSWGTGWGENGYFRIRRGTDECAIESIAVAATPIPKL

[4] = target: T3, cysteines in MDA-MB-231 and Ramos cells (Homo sapiens, UniProt O43175); details: 200 μM, insitu
T3 sequence (O43175 1-533): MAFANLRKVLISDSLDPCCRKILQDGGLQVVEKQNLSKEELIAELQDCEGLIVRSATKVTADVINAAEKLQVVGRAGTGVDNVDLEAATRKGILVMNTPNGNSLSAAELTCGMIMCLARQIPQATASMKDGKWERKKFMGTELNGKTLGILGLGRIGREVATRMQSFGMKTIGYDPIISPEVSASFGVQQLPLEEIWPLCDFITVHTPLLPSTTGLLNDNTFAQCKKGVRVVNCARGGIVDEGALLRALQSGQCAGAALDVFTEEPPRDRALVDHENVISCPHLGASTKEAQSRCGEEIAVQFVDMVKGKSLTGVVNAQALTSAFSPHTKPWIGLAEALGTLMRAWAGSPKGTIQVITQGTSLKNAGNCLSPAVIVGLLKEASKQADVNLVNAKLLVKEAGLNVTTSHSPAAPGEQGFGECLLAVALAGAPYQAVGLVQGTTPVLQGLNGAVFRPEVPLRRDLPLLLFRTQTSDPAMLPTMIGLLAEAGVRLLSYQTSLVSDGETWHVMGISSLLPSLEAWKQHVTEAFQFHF

[5] = target: cysteines in MDA-MB-231 and Ramos cells (Homo sapiens, UniProt Q9BRF8)
Sequence of cysteines in MDA-MB-231 and Ramos cells (Homo sapiens, UniProt Q9BRF8) (Q9BRF8 whole entry): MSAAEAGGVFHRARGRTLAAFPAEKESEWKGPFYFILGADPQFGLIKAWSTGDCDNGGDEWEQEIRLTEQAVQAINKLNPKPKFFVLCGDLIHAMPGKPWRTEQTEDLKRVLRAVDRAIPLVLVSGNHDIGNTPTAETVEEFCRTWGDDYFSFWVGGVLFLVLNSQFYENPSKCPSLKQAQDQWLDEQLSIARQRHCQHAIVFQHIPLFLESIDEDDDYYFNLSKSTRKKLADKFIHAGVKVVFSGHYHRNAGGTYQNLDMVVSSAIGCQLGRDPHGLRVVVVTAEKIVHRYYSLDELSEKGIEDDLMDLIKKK

[6] = target: T4, cysteines in MDA-MB-231 and Ramos cells (Homo sapiens, UniProt P19447)
T4 sequence (P19447 1-782): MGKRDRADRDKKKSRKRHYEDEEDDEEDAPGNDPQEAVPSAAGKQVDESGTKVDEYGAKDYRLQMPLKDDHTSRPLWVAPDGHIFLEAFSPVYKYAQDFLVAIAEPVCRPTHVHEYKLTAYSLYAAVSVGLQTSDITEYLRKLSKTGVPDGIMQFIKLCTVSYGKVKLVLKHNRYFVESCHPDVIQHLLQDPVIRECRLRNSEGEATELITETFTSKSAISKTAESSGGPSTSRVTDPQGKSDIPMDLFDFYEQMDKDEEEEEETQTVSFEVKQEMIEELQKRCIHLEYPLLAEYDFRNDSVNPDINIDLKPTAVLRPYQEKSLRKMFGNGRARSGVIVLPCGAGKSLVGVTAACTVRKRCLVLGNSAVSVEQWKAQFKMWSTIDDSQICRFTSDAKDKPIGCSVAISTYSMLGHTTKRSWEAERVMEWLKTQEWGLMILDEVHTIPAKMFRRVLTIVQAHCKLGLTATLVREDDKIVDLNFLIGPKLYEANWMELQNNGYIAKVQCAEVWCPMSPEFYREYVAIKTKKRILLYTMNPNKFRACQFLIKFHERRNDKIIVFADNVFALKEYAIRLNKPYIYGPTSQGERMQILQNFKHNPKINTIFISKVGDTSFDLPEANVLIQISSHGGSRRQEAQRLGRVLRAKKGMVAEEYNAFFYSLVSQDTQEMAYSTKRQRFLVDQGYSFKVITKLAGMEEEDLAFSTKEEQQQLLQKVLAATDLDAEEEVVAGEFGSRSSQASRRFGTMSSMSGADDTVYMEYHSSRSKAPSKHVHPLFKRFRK

[7] = target: T5, cysteines in MDA-MB-231 and Ramos cells (Homo sapiens, UniProt P09110)
T5 sequence (P09110 27-424): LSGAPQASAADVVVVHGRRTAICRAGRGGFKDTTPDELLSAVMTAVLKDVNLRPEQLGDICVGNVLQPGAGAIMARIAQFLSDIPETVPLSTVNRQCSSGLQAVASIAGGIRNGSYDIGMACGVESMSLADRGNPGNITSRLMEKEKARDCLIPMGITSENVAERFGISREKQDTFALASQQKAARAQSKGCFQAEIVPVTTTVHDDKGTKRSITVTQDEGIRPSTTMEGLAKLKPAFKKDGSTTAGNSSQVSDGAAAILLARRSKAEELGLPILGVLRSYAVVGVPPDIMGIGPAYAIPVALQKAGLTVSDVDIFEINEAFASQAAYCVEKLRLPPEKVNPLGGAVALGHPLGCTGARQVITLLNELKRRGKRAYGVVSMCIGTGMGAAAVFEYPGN

## COc1ccc2c(c1)CCCN2C(=O)CCl [compound 2]
[1]; 200 μM, insitu, 231
  isoTOP-ABPP reactivity Q15398_C129 DLGAP5: 20.0
[2]; 200 μM, insitu, 231
  isoTOP-ABPP reactivity Q9NX18_C83 SDHAF2: 3.1
[3]; 200 μM, insitu, 231
  isoTOP-ABPP reactivity P53634_C258 CTSC: 0.9
[4]; 231
  isoTOP-ABPP reactivity O43175_C369 PHGDH: 20.0

## COc1ccc(C2CC(c3cccs3)=NN2C(=O)CCl)cc1 (centres unmarked) [compound 4]
[2]; 100 μM in situ 231
  isoTOP-ABPP reactivity Q9NX18_C83 SDHAF2: 3.0
[3]; 100 μM in situ 231
  isoTOP-ABPP reactivity P53634_C258 CTSC: 1.2
[5]; 100 μM in situ 231
  isoTOP-ABPP reactivity Q9BRF8_C54 CPPED1: 20.0

## COc1cc2c(cc1OC)CN(C(=O)CCl)CC2 [compound 8]
[6]; 200 μM, insitu, 231
  isoTOP-ABPP reactivity P19447_C342 ERCC3: 12.4
[7]; 200 μM, insitu, 231
  isoTOP-ABPP reactivity P09110_C381 ACAA1: 0.8

## O=C(CCl)N1CCC(Cc2ccccc2)CC1 [compound 9]
[5]; 200 μM, insitu, 231
  isoTOP-ABPP reactivity Q9BRF8_C54 CPPED1: 2.4

## O=C(CCl)N1CCN(S(=O)(=O)c2ccccc2F)CC1 [compound 10]
[2]; 200 μM, insitu, 231
  isoTOP-ABPP ratio Q9NX18_C83: 4.4
[6]; 200 μM, insitu, 231
  isoTOP-ABPP ratio P19447_C342: 20.0
[3]; 200 μM, insitu, 231
  isoTOP-ABPP ratio, cysteine P53634_C258: 5.5
[4]; ramos
  isoTOP-ABPP ratio, cysteine O43175_C369: 2.4
[5]; 200 μM, insitu, 231
  isoTOP-ABPP ratio Q9BRF8_C54: 3.8

## Cn1cc(S(=O)(=O)N2CCOCC2)cc1C(=O)NC(=O)CCl [compound 11]
[1]; 100 μM in situ 231
  isoTOP-ABPP ratio, cysteine Q15398_C129: 0.6
[2]; 100 μM in situ 231
  isoTOP-ABPP ratio Q9NX18_C83: 1.1
[6]; 100 μM in situ 231
  isoTOP-ABPP ratio P19447_C342: 0.7
[7]; 100 μM in situ 231
  isoTOP-ABPP ratio, cysteine P09110_C381: 0.8
[5]; 100 μM in situ 231
  isoTOP-ABPP ratio Q9BRF8_C54: 1.0

## O=C(CCl)NC(=O)NC12CC3CC(CC(C3)C1)C2 [compound 12]
[2]; 200 μM, insitu, 231
  isoTOP-ABPP ratio Q9NX18_C83: 20.0
[6]; 200 μM, insitu, 231
  isoTOP-ABPP ratio P19447_C342: 6.7
[7]; 200 μM, insitu, 231
  isoTOP-ABPP ratio, cysteine P09110_C381: 4.5
[3]; 200 μM, insitu, 231
  isoTOP-ABPP ratio, cysteine P53634_C258: 13.4
[5]; 200 μM, insitu, 231
  isoTOP-ABPP ratio Q9BRF8_C54: 1.2

## O=C(CCl)NCCc1c[nH]c2ccccc12 [compound 13]
[6]; 200 μM, insitu, 231
  isoTOP-ABPP ratio P19447_C342: 1.1
[3]; 200 μM, insitu, 231
  isoTOP-ABPP ratio, cysteine P53634_C258: 1.6
[4]; ramos
  isoTOP-ABPP ratio, cysteine O43175_C369: 2.0
[5]; 200 μM, insitu, 231
  isoTOP-ABPP ratio Q9BRF8_C54: 1.4

## O=C(CCl)NC12CC3CC(CC(C3)C1)C2 [compound 21]
[2]; 200 μM, insitu, 231
  isoTOP-ABPP ratio Q9NX18_C83: 1.3
[6]; 200 μM, insitu, 231
  isoTOP-ABPP ratio P19447_C342: 2.0
[3]; 200 μM, insitu, 231
  isoTOP-ABPP ratio, cysteine P53634_C258: 2.8
[4]; 231
  isoTOP-ABPP ratio, cysteine O43175_C369: 1.0

## CC(C)CCOCCNC(=O)CCl [compound 27]
[1]; 200 μM, insitu, 231
  isoTOP-ABPP ratio Q15398_C129: 0.5
[2]; 200 μM, insitu, 231
  isoTOP-ABPP ratio Q9NX18_C83: 1.5

## COc1ccccc1OCCNC(=O)CCl [compound 28]
[7]; 200 μM, insitu, 231
  isoTOP-ABPP ratio P09110_C381: 0.8

## O=C(CCl)N1CCN(CC(=O)N2CCOCC2)CC1 [compound 29]
[1]; 200 μM, insitu, ramos
  isoTOP-ABPP ratio Q15398_C129: 1.2
[2]; 200 μM, insitu, ramos
  isoTOP-ABPP ratio Q9NX18_C83: 1.9
[4]; ramos
  isoTOP-ABPP ratio O43175_C369: 1.1
[5]; 200 μM, insitu, ramos
  isoTOP-ABPP ratio Q9BRF8_C54: 1.5

## C=CC(=O)N(Cc1cccnc1)c1cc(C(F)(F)F)cc(C(F)(F)F)c1 [compound 31]
[1]; 200 μM, insitu, ramos
  isoTOP-ABPP ratio Q15398_C129: 2.4
[7]; 200 μM, insitu, 231
  isoTOP-ABPP ratio P09110_C381: 0.7
[4]; 231
  isoTOP-ABPP ratio O43175_C369: 20.0
[4]; ramos
  isoTOP-ABPP ratio O43175_C369: 20.0

## C=CC(=O)Nc1cc(F)c(N2CCN(C(=O)OC(C)(C)C)CC2)c(F)c1 [compound 38]
[1]; 200 μM, insitu, 231
  isoTOP-ABPP ratio Q15398_C129: 1.4
[6]; 200 μM, insitu, 231
  isoTOP-ABPP ratio P19447_C342: 1.0
[7]; 200 μM, insitu, 231
  isoTOP-ABPP ratio P09110_C381: 0.8

## Cc1ccc(C=C(C#N)C(=O)NCCN2CCOCC2)cc1 [compound 41]
[6]; 200 μM, insitu, 231
  isoTOP-ABPP ratio P19447_C342: 0.7
[7]; 200 μM, insitu, 231
  isoTOP-ABPP ratio P09110_C381: 0.9
[5]; 200 μM, insitu, 231
  isoTOP-ABPP ratio Q9BRF8_C54: 0.7

## CC1CCc2ccccc2N1C(=O)CCl (centres unmarked) [compound 45]
[2]; 200 μM, insitu, 231
  isoTOP-ABPP ratio Q9NX18_C83: 3.7
[6]; 200 μM, insitu, 231
  isoTOP-ABPP ratio P19447_C342: 5.9
[7]; 200 μM, insitu, 231
  isoTOP-ABPP ratio P09110_C381: 1.2
[5]; 200 μM, insitu, 231
  isoTOP-ABPP ratio Q9BRF8_C54: 20.0

## O=C(CCl)Nc1cccc2ncccc12 [compound 51]
[1]; 200 μM, insitu, 231
  isoTOP-ABPP ratio Q15398_C129: 7.4
[2]; 200 μM, insitu, 231
  isoTOP-ABPP ratio Q9NX18_C83: 1.0
